Biological target: Aβ42 (Homo sapiens, UniProt P05067)
Assay: Th-T (thioflavin-T) assay of Aβ42 aggregation
Assay type: biochemical
Conditions: for Th-T assay plate reading, mean of three wells (Supplementary Fig. 47): source data, Ab alone and No Ab as controls

Sequence of Aβ42 (P05067 672-713): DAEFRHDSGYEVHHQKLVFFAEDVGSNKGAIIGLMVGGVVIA

## C=C1CCC2C(C)(CCC=C(C)C)C(O)CCC2(C)C1Cc1c(O)c(C)c(C)oc1=O (stereo not drawn) [Compound 9, higginsianin B]
Aβ42 aggregation time course, reading M117
  Th-T fluorescence, mean of three wells: 2.792
Aβ42 aggregation time course, reading M118
  Th-T fluorescence, mean of three wells: 2.807
Aβ42 aggregation time course, reading M119
  Th-T fluorescence, mean of three wells: 2.796
Aβ42 aggregation time course, reading M120
  Th-T fluorescence, mean of three wells: 2.799
Aβ42 aggregation time course, reading M121
  Th-T fluorescence, mean of three wells: 2.791
Aβ42 aggregation time course, reading M122
  Th-T fluorescence, mean of three wells: 2.801
Aβ42 aggregation time course, reading M123
  Th-T fluorescence, mean of three wells: 2.8089
Aβ42 aggregation time course, reading M124
  Th-T fluorescence, mean of three wells: 2.764
Aβ42 aggregation time course, reading M125
  Th-T fluorescence, mean of three wells: 2.798
Aβ42 aggregation time course, reading M126
  Th-T fluorescence, mean of three wells: 2.7918
Aβ42 aggregation time course, reading M127
  Th-T fluorescence, mean of three wells: 2.782
Aβ42 aggregation time course, reading M128
  Th-T fluorescence, mean of three wells: 2.756
Aβ42 aggregation time course, reading M129
  Th-T fluorescence, mean of three wells: 2.788
Aβ42 aggregation time course, reading M130
  Th-T fluorescence, mean of three wells: 2.772
Aβ42 aggregation time course, reading M131
  Th-T fluorescence, mean of three wells: 2.794
Aβ42 aggregation time course, reading M132
  Th-T fluorescence, mean of three wells: 2.756
Aβ42 aggregation time course, reading M133
  Th-T fluorescence, mean of three wells: 2.787
Aβ42 aggregation time course, reading M134
  Th-T fluorescence, mean of three wells: 2.786
Aβ42 aggregation time course, reading M135
  Th-T fluorescence, mean of three wells: 2.766
Aβ42 aggregation time course, reading M136
  Th-T fluorescence, mean of three wells: 2.788
Supplementary Fig. 47, reading M137
  Th-T fluorescence, mean of three wells: 2.782
Supplementary Fig. 47, reading M138
  Th-T fluorescence, mean of three wells: 2.781
Supplementary Fig. 47, reading M139
  Th-T fluorescence, mean of three wells: 2.778
Supplementary Fig. 47, reading M140
  Th-T fluorescence, mean of three wells: 2.777
Supplementary Fig. 47, reading M141
  Th-T fluorescence, mean of three wells: 2.762
Supplementary Fig. 47, reading M142
  Th-T fluorescence, mean of three wells: 2.77
Supplementary Fig. 47, reading M143
  Th-T fluorescence, mean of three wells: 2.794
Supplementary Fig. 47, reading M144
  Th-T fluorescence, mean of three wells: 2.791
Supplementary Fig. 47, reading M145
  Th-T fluorescence, mean of three wells: 2.767
Measurement M1
  Th-T assay plate reading, mean of three wells (Supplementary Fig. 47): 0.2408
Measurement M2
  Th-T assay plate reading, mean of three wells (Supplementary Fig. 47): 0.2372
Measurement M3
  Th-T assay plate reading, mean of three wells (Supplementary Fig. 47): 0.2484
Measurement M4
  Th-T assay plate reading, mean of three wells (Supplementary Fig. 47): 0.2764
Measurement M5
  Th-T assay plate reading, mean of three wells (Supplementary Fig. 47): 0.3211
Measurement M6
  Th-T assay plate reading, mean of three wells (Supplementary Fig. 47): 0.3818
Measurement M7
  Th-T assay plate reading, mean of three wells (Supplementary Fig. 47): 0.386
Measurement M8
  Th-T assay plate reading, mean of three wells (Supplementary Fig. 47): 0.4241
Measurement M9
  Th-T assay plate reading, mean of three wells (Supplementary Fig. 47): 0.4754
Measurement M10
  Th-T assay plate reading, mean of three wells (Supplementary Fig. 47): 0.5222
Measurement M11
  Th-T assay plate reading, mean of three wells (Supplementary Fig. 47): 0.5741
Measurement M12
  Th-T assay plate reading, mean of three wells (Supplementary Fig. 47): 0.6179
Measurement M13
  Th-T assay plate reading, mean of three wells (Supplementary Fig. 47): 0.6443
Measurement M14
  Th-T assay plate reading, mean of three wells (Supplementary Fig. 47): 0.6952
Measurement M15
  Th-T assay plate reading, mean of three wells (Supplementary Fig. 47): 0.7748
Measurement M16
  Th-T assay plate reading, mean of three wells (Supplementary Fig. 47): 1.021
Reading M17, Supplementary Fig. 47 source data
  Th-T fluorescence, mean of three wells: 1.394
time-course reading M97, Supplementary Fig. 47 source data
  Th-T fluorescence, mean of three wells: 2.816
time-course reading M98, Supplementary Fig. 47 source data
  Th-T fluorescence, mean of three wells: 2.842
time-course reading M99, Supplementary Fig. 47 source data
  Th-T fluorescence, mean of three wells: 2.834
time-course reading M100, Supplementary Fig. 47 source data
  Th-T fluorescence, mean of three wells: 2.825
time-course reading M101, Supplementary Fig. 47 source data
  Th-T fluorescence, mean of three wells: 2.818
time-course reading M102, Supplementary Fig. 47 source data
  Th-T fluorescence, mean of three wells: 2.832
time-course reading M103, Supplementary Fig. 47 source data
  Th-T fluorescence, mean of three wells: 2.816
time-course reading M104, Supplementary Fig. 47 source data
  Th-T fluorescence, mean of three wells: 2.8075
time-course reading M105, Supplementary Fig. 47 source data
  Th-T fluorescence, mean of three wells: 2.8016
time-course reading M106, Supplementary Fig. 47 source data
  Th-T fluorescence, mean of three wells: 2.808
time-course reading M107, Supplementary Fig. 47 source data
  Th-T fluorescence, mean of three wells: 2.794
time-course reading M108, Supplementary Fig. 47 source data
  Th-T fluorescence, mean of three wells: 2.811
time-course reading M109, Supplementary Fig. 47 source data
  Th-T fluorescence, mean of three wells: 2.783
time-course reading M110, Supplementary Fig. 47 source data
  Th-T fluorescence, mean of three wells: 2.799
time-course reading M111, Supplementary Fig. 47 source data
  Th-T fluorescence, mean of three wells: 2.807
time-course reading M112, Supplementary Fig. 47 source data
  Th-T fluorescence, mean of three wells: 2.812
time-course reading M113, Supplementary Fig. 47 source data
  Th-T fluorescence, mean of three wells: 2.81
time-course reading M114, Supplementary Fig. 47 source data
  Th-T fluorescence, mean of three wells: 2.8
time-course reading M115, Supplementary Fig. 47 source data
  Th-T fluorescence, mean of three wells: 2.812
time-course reading M116, Supplementary Fig. 47 source data
  Th-T fluorescence, mean of three wells: 2.796
